Data: patent US20090082271A1, “AGENTS THAT REDUCE APOE-INDUCED IMPAIRMENT OF MITOCHONDRIA AND METHODS OF USE THEREOF” (priority 2005, published 2009)
Entries after “also recorded” stand apart in the source; their conditions may differ.

Tests used:
[1] = test system: differentiated PC12 cells; assay: Time-lapse fluorescence recording of mitochondrial motility and morphology in neurites of differentiated PC12 cells (dsRed2-Mito); conditions: for mitochondrial motility increased: nimodipine 5 μM and AP5 50 μM together (both antagonists), with different forms of apoE; for reduction of percentage of motile mitochondria in response to neuronal activation: apoE 7.5 μg/ml 24 h, then repetitive depolarizations with KCl
[2] = test system: rat primary cortical neurons
Neuro-2a cells = assay: MTT cell survival assay of Neuro-2a cells transiently transfected with apoE4 cDNA constructs; type: cell-based, mouse; conditions: expressed by transient transfection; 48 h after transfection; vs WT apoE4 / apoE4(1-272)
Procedure: Cell Culture and Transfection. […] ApoE4 expression levels were determined by anti-apoE western blotting of cell lysates and media. […] Thus, the results are not due to overexpression.
Cell Survival. […] Cell survival was estimated with an MTT colorimetric assay (52) 48 h after transfection.

[3] = test system: rat primary hippocampal neurons; type: cell-based; conditions: apoE 7.5 μg/ml, 24 h
Excerpt: FIGS. 12A and 12B. […] Scale bar=5 μm.

[4] = test system: PC12 cells stably expressing various forms of apoE; assay: Mitochondrial dynamics in differentiated PC12 cells stably expressing various forms of apoE; type: cell-based, rat; conditions: endogenous (stably expressed) apoE, ~200 pg apoE per μg cellular protein; vs control
primary cortical neurons = assay: Number, occupancy and size of mitochondria in dendrites of primary cortical neurons; type: cell-based, rat; conditions: vs apoE3-treated cells or controls
[5] = repetitive depolarization with KCl 90 mM

NC(CCCP(=O)(O)O)C(=O)O (stereo not drawn) [AP5, 2-amino-5-phosphonovalerate]
mitochondrial motility increased ([1]; 24 h): about 30%

[Cl-].[K+] [KCl]
average moving velocity (anterograde direction) [1, 5]: drastically reduced
mitochondrial moving velocity (distance/time moving) [1, 5]: unaltered; also recorded: did not affect
net moving distance (anterograde direction) [1, 5]: drastically reduced
retrograde motility [1, 5]: No significant changes
mitochondrial index reduced ([1]; repetitive depolarizations with KCl (4×, 90 mM)): 22.5%

NC1=N[C@H](O)[C@H]2[C@H]3O[C@]4(O)O[C@@H]([C@@H](O)[C@@]2(N1)[C@@H]4O)[C@]3(O)CO [TTX, tetrodotoxin]
differences in dendritic spine density between forms of apoE in the presence of TTX [2]: No significant differences
differences in mitochondrial dynamics between forms of apoE in the presence of TTX [1]: No significant differences
mitochondrial dynamics [1]: increased
mitochondrial index [1]: without affecting; also recorded: not affected

COCCOC(=O)C1=C(C)NC(C)=C(C(=O)OC(C)C)C1c1cccc([N+](=O)[O-])c1 (stereo not drawn) [nimodipine]
mitochondrial motility increased ([1]; 24 h): about 30%

L279Q: full-length WT apoE4 with single mutation L279Q
neurotoxicity (cell survival, MTT assay) (Neuro-2a cells): as neurotoxic as apoE4(1-272)

Q284A: full-length WT apoE4 with single mutation Q284A
neurotoxicity (cell survival, MTT assay) (Neuro-2a cells): as neurotoxic as apoE4(1-272)

aa241-272 of apoE4: lipid binding region alone of apoE4 (AKLEEQAQQIRLQAEAFQARLKSWFEPLVEDM; UniProt P02649 259-290, looked up, fragment)
neurotoxicity (cell survival, MTT assay) (Neuro-2a cells): No neurotoxicity was observed

apoE3: recombinant apolipoprotein E3 isoform; also stably expressed in PC12 cells
density of dendritic spines increased vs controls [3]: 11±4%
density of dendritic spines increased vs controls ([2]; apoE 7.5 μg/ml, 24 h): 20±6%
reduction of percentage of motile mitochondria in response to neuronal activation [1]: 58±6%
average length of mitochondria ([1]; exogenous apoE 7.5 μg/ml, 24 h): did not
mitochondrial motility / dynamics overall ([1]; exogenous apoE 7.5 μg/ml, 24 h): not affected
mitochondrial motility / dynamics overall ([1]; exogenous apoE 7.5 μg/ml, 24 h, listed as ApoE3): did not alter mitochondrial dynamics significantly
percentage of motile mitochondria reduced [4]: unaffected

apoE4: full-length human apolipoprotein E4 (SEQ ID NO:1); expressed from cDNA or added as recombinant protein
density of dendritic spines decreased vs controls [3]: 19±5%
density of dendritic spines reduced compared with apoE3 [3]: 28±4%
spinal density reduced in response to neuronal activation, compared to controls ([2]; apoE 7.5 μg/ml 24 h, repetitive KCl depolarization): 48±11%
density of dendritic spines decreased vs controls ([2]; apoE 7.5 μg/ml, 24 h): 13±5%
density of dendritic spines reduced compared with apoE3 ([2]; apoE 7.5 μg/ml, 24 h): 27±5%
reduction of percentage of motile mitochondria in response to neuronal activation [1]: 30%
average length of mitochondria ([1]; exogenous apoE 7.5 μg/ml, 24 h): significantly reduced
retrograde velocity ([1]; exogenous apoE 7.5 μg/ml, 24 h): unaffected
number of mitochondria in dendritic spines (primary cortical neurons): many fewer mitochondria
